Assay results: patent publication US20250051324A1, “PARP INHIBITOR, PHARMACEUTICAL COMPOSITION COMPRISING SAME, AND USE THEREOF” (KEYTHERA (SUZHOU) BIO-PHARMACEUTICALS CO., LIMITED, priority 2021, published 2025)
Like-named read-outs stand apart in the source and are kept apart here.

Tests used:
PARP1 = PARP1 (Homo sapiens (Human), UniProt P09874); assay: PARP enzyme activity assay (PARP1 chemiluminescent assay kit); assay type: biochemical; conditions: enzyme inhibitory activity, read-out: PARP-1 IC50
PARP1, sequence (P09874 whole entry): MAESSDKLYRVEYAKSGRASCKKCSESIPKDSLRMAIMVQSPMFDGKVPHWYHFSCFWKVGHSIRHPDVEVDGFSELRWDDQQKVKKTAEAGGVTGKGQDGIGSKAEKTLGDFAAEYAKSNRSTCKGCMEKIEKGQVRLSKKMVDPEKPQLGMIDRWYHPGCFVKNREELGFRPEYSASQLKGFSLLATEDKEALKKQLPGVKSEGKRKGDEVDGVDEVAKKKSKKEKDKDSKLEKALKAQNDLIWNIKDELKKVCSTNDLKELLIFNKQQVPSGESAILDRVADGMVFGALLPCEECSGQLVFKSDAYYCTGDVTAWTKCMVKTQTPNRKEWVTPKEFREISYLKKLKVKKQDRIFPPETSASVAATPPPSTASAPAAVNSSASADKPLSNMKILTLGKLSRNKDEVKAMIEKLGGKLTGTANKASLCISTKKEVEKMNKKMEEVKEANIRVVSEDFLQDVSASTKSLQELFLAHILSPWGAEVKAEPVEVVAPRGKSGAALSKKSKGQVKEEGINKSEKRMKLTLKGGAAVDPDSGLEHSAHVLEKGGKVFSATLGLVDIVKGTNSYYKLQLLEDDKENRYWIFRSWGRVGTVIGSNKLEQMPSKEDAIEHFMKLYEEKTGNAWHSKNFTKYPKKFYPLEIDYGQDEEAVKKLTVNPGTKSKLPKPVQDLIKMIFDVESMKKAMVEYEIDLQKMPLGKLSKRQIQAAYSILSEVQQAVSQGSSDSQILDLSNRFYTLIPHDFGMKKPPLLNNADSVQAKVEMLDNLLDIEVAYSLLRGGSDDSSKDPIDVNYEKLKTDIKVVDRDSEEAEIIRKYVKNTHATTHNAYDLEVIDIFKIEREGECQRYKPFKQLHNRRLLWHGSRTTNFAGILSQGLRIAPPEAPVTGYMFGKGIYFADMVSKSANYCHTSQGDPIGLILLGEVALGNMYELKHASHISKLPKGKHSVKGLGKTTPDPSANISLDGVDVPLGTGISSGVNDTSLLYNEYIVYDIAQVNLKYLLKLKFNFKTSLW
Procedure, shortened: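 Chemiluminescent kit measuring PARP1 poly(ADP-ribosylation) of plate-coated histones in presence of activated DNA; compounds in 1:3 serial dilution, top 10 μM before 10-fold buffer dilution. Enzyme (2.5 ng/μL added) reacted 60 min at room temperature, detected by streptavidin-HRP luminescence; IC50 from log-concentration vs % inhibition.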

[1] = Evaluation of pharmacokinetics in rats; assay type: in vivo; conditions: male, SD, rat, plasma, 1 mg/kg, oral gavage (PO, 1 mpk)
Source text: Test Animals: 6-8 Week Old Male SD Rats
Food was restored two hours after dosing.

[2] = test system: breast cancer BR-05-0044E; assay type: in vivo, mouse; conditions: for Tumor Growth Inhibition Rate (TGI): 21 days
Protocol: Test Objective: The in vivo efficacy of the test compound was evaluated in a subcutaneous xenograft tumor model of breast cancer BR-05-0044E in NOD SCID mice.
Experimental Animals: Female NOD SCID mice, 6-8 weeks old, weighing 18-20 grams were provided by Beijing Charles River Laboratory Animal Technology Co., Ltd. The animals were acclimated in the experimental environment for 3-7 days before the experiment. The animals were housed in SPF-grade animal rooms in IVC cages (individually ventilated cages) with 4 mice per cage. All cages, bedding, and drinking water were sterilized before use. Cages, feed, and water were changed twice a week. The housing environment and lighting conditions were as follows: temperature: 20-26° C., humidity: 40-70%, light cycle: 12 hours light, 12 hours dark.
PDX Model Establishment: The human breast cancer BR-05-0044E model was initially derived from clinical samples surgically removed. After tumor tissue was expanded in mice, 20-30 mm^3 BR-05-0044E tumor tissue blocks were subcutaneously implanted into the right flank of each mouse. Tumor growth was monitored, and when the average tumor volume reached approximately 150-200 mm^3, the mice were randomly grouped for administration. Animals were weighed, and tumor volume was measured before administration. Random grouping was based on tumor volume (random block design).
Experimental Groups: The experiment was divided into the following groups: 1. Vehicle control group, 2. Compound 1 0.1 mg/kg, 3. Compound 1 0.3 mg/kg, 4. Compound 1 1.0 mg/kg. All groups were administered orally by gavage once daily. Routine checks included observing tumor growth and the impact of drug treatment on the animals' daily behavior (such as activity, food and water intake, body weight changes (measured twice a week), appearance, or other abnormalities). The animal number of deaths and side effects in each group were recorded.
Experimental Indicators: The experimental indicators were to assess whether tumor growth was inhibited, delayed, or cured. Tumor diameter was measured twice a week with calipers. Tumor volume was calculated using the formula: V=0.5a×b^2, where a and b represent the tumor's length and width, respectively.
The efficacy of the compound on inhibiting tumor was evaluated by tumor volume and tumor growth inhibition rate (TGI). TGI (%) was calculated as follows: TGI (%)={1−(Average Tumor volume at end of administration in treatment group−Average Tumor volume at start of administration in treatment group)/(Average Tumor volume at end of administration in vehicle control group−Average Tumor volume at start of administration in vehicle control group)}×100%.

[3] = test system: peripheral blood reticulocytes; assay: Effect of compound on rat reticulocytes; assay type: in vivo; conditions: 4 days
Protocol: Test Objective: The effect of the compound on peripheral blood reticulocytes was evaluated to determine its impact on bone marrow hematopoietic function.
Test Compounds: Olaparib, Compound 1
Experimental Animals: Male Sprague Dawley rats were purchased from Beijing Charles River Laboratory Animal Technology Co., Ltd. Housing and Management: The experimental animals were housed in SPF-grade, temperature- and humidity-controlled clean rooms, using individually ventilated cages (IVC) with no more than 5 rats per cage. Temperature/humidity was controlled within the range of (23±3)° C./40-70%. Feed and water: SPF-grade rat feed, sterilized by cobalt-60 irradiation. Drinking water was ultrafiltered and autoclaved. Animals had free access to sterile food and water. Animal identification: ear tags.
Experimental Method: The experiment was divided into the following 5 groups: vehicle control group; Olaparib 100 mg/kg; Compound 1 0.1 mg/kg; Compound 1 0.3 mg/kg; and Compound 1 1.0 mg/kg. All treatments were administered orally by gavage once daily for 4 days. Blood samples were collected before and after treatment to measure peripheral blood reticulocyte counts.

[4] = Evaluation of pharmacokinetics in mice; conditions: male, ICR (CD1), mouse, plasma, po, 10 mg/kg

CNC(=O)c1ccc(N2CCN(Cc3cnc4c(C)c(C(F)(F)F)c(=O)[nH]c4c3)CC2)cn1 [Compound 1, N-methyl-5-(4-((8-methyl-6-oxo-7-(trifluoromethyl)-5,6-dihydro-1,5-naphthyridin-3-yl)methyl)piperazin-1-yl)picolinamide] showed an IC50 (PARP1) of 2.78 nM, an AUC(0-inf) [1] of 11.3 µg·h/mL and a Cmax [1] of 1740 ng/mL. For the same compound, the half-life [1] was 4.33 h, the “Tumor Growth Inhibition Rate (TGI)” value ([2]; 0.1 mg/kg oral once daily) was 105% and the “Tumor Growth Inhibition Rate (TGI)” value ([2]; 0.3 mg/kg oral once daily) was 106%. For the same compound, the “Tumor Growth Inhibition Rate (TGI)” value ([2]; 1.0 mg/kg oral once daily) was 107%, the “Body weight vs vehicle control group” value ([2]; mouse, in vivo) was “no significant difference” and the “Reticulocyte Inhibition Rate” value ([3]; 0.1 mg/kg oral once daily) was 12.2%. For the same compound, the “Reticulocyte Inhibition Rate” value ([3]; 0.3 mg/kg oral once daily) was 33.8%, the “Reticulocyte Inhibition Rate” value ([3]; 1.0 mg/kg oral once daily) was 41.9% and the “Effect on peripheral blood reticulocytes (in words)” value ([3]; 0.1, 0.3 and 1.0 mg/kg, p>0.05) was “no significant effect”. The AUC(0-inf) [4] was 972 µg·h/mL, the Cmax [4] was 39600 ng/mL and the half-life [4] was 17.9 h.
